#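 Compound exposure: 48 hours, 5 concentrations, 96-well plates. The concentration for 50% growth inhibition is given as GI50. TGI marks complete inhibition of growth.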
# Key:
# Test in all cases: NCI-60 cell line screen, 48 h
# COLO 205 colon = system: COLO 205 colon
# LOX IMVI melanoma = system: LOX IMVI melanoma
# MCF7 breast = system: MCF7 breast
# NCI-H522 lung = system: NCI-H522 lung
# OVCAR-4 ovarian = system: OVCAR-4 ovarian
# PC-3 prostate = system: PC-3 prostate
# SF-295 CNS = system: SF-295 CNS
# SF-539 CNS = system: SF-539 CNS
# SW-620 colon = system: SW-620 colon
# DU-145 prostate = system: DU-145 prostate
Structure (SMILES),TGI (COLO 205 colon) [µM],TGI (LOX IMVI melanoma) [µM],TGI (MCF7 breast) [µM],TGI (NCI-H522 lung) [µM],TGI (OVCAR-4 ovarian) [µM],TGI (PC-3 prostate) [µM],TGI (SF-295 CNS) [µM],TGI (SF-539 CNS) [µM],TGI (SW-620 colon) [µM],TGI (DU-145 prostate) [µM],GI50 (COLO 205 colon) [µM],GI50 (LOX IMVI melanoma) [µM],GI50 (OVCAR-4 ovarian) [µM],GI50 (SF-295 CNS) [µM],GI50 (SF-539 CNS) [µM],GI50 (SW-620 colon) [µM],GI50 (DU-145 prostate) [µM],GI50 (MCF7 breast) [µM],GI50 (NCI-H522 lung) [µM],GI50 (PC-3 prostate) [µM]
Cc1cc(=O)[nH]o1,> 100,> 100,> 100,> 100,> 100,> 100,> 100,> 100,> 100,–,–,–,–,–,–,–,–,–,–,–
CCCCCCCCOC(CO)CO,> 100,> 100,–,–,> 100,–,> 100,–,> 100,–,–,–,–,–,–,–,–,–,–,–
C[C@]12CCc3nonc3C1CC[C@@H]1C2CC[C@]2(C)NC(=O)CCC12 (stereo partly drawn),> 100,> 100,–,> 100,> 100,–,> 100,> 100,> 100,–,–,–,–,–,–,–,–,–,–,–
Cc1ccc(Nc2n[nH]c(=S)s2)cc1,> 100,> 100,> 100,–,–,> 100,> 100,> 100,> 100,> 100,–,–,–,–,–,–,–,–,–,–
O=C(c1cc2ccccc2o1)N(Cc1ccccc1)c1ccccc1,35.4,39,–,33.9,–,–,> 100,–,32.4,–,–,–,–,–,–,–,–,–,–,–
O=c1cccccc1NCCCCCCNc1cccccc1=O,> 100,> 100,–,> 100,> 100,–,> 100,–,> 100,–,–,–,–,–,–,–,–,–,–,–
CC/C(=C(/CC)c1ccc([O-])cc1)c1ccc([O-])cc1.CC/C(=C(\CC)c1ccc([O-])cc1)c1ccc([O-])cc1.O=C([CH-]C(=O)c1ccccc1)c1ccccc1.O=C([CH-]C(=O)c1ccccc1)c1ccccc1.O=C([CH-]C(=O)c1ccccc1)c1ccccc1.O=C([CH-]C(=O)c1ccccc1)c1ccccc1.[Ti+4].[Ti+4],> 100,> 100,–,–,> 100,–,42.6,40.8,51.6,–,37.9,43,42.9,19.9,20,21.4,–,–,–,–
Cc1noc(C)c1-c1cc(O)cc(C(O)c2ccccc2)c1 (stereo not drawn),> 100,80.5,> 100,> 100,> 100,–,> 100,> 100,> 100,> 100,5.25,3.6,6.35,7.31,4.56,24.6,69.5,1.7,27,–
CO/N=C(\C)c1cccc(Nc2cc(-c3ccccc3)nc3c(O)cccc23)c1,46.1,24.3,–,6.95,> 100,24.3,5.55,39.9,19.6,28,18.3,8.56,61.3,2.17,10.8,4.5,9.2,–,2.78,4.13
COc1ccc2nc3cc(Cl)ccc3c(N3CCN(c4ccnc(N5CCOCC5)n4)CC3)c2c1,> 100,–,4.9,5.09,–,> 100,> 100,> 100,> 100,> 100,6.66,–,–,> 100,> 100,4.71,17.9,1.89,1.81,98.1
O=C1c2ccccc2C(=O)c2c(NCCNCCO)ccc(O)c21,10.3,2.85,–,11.8,6.53,–,15.8,12.1,12.9,–,–,–,–,–,–,–,–,–,–,–
O=C1OCCC1C(O)C1c2ccccc2-c2ccccc21 (stereo not drawn),> 100,–,–,> 100,> 100,–,> 100,–,> 100,–,–,–,–,–,–,–,–,–,–,–
CN(C)CCNC(=O)Cn1cc([N+](=O)[O-])c(=O)c2ccccc21,> 100,–,> 100,> 100,–,> 100,> 100,> 100,> 100,> 100,–,–,–,–,–,–,–,–,–,–
CC(=O)O[C@]1(C)OC(=O)[C@@H](C)N1[N+](=O)[O-],> 100,> 100,–,> 100,> 100,–,> 100,> 100,> 100,–,–,–,–,–,–,–,–,–,–,–
CC1(C)CCc2cc3c(cc2O1)OCC1c2cc4c(cc2OC31)OCO4 (stereo not drawn),> 100,> 100,–,> 100,> 100,–,> 100,> 100,> 100,–,–,–,–,–,–,–,–,–,–,–

# Source: PubChem BioAssay (NCI)
